Reference: patent US8716279B2, “Pharmaceutical compositions of clonazepam and method of use thereof” (Jazz Pharmaceuticals, Inc., priority 2006, dated 2014)
≈ marks a conversion by molar mass, not a printed value.

Legend:
[1] = oral; cited from earlier work
[2] = Solubility of clonazepam in binary mixtures of matrices; conditions: binary mixture with glycofurol, inferred from FIG. 2
Protocol: Further, the solubility of clonazepam in binary mixtures of Transcutol® (TC), triacetin (TA), glycofurol (GF) and propylene glycol (PG) was evaluated. Solubility limits of clonazepam were determined for the following formulations:
Excess drug (50 mg) was capped with about 500 μL of the solvent matrix in a 1.5 mL microfuge tube and the solution was mixed on a vortex shaker for several minutes. Thereafter, the solution was placed in an ultrasonic bath at 25° C. for 45 minutes. The temperature was regulated with a thermometer and controlled by adding ice into the bath. After 15 minutes of standing, the solutions were centrifuged at 3,000×g for 30 minutes. Solutions were then stored for 16 hours at 25° C. in an ICH cabinet and protected from light.

[3] = Psychomotor, subjective and cognitive tests; type: in vivo; conditions: human
From the text: D. Neurocognative Tests: The Cognitive Drug Research (CDR) computerized assessment system is specifically designed to evaluate the effects of compounds on the quality of cognitive functioning in subjects and patients in all phases of clinical development. The CDR system is a widely used computerized cognitive assessment system (see, for example, Ebert U, et al., “Pharmacokinetics and pharmacodynamics of scopolamine after subcutaneous administration,” Journal of Clinical Pharmacology 38: 720-726 (1998); Harrington F, et al., “Cognitive Performance in Hypertensive and Normotensive Older Subjects,” Hypertension 36: 1079-1082 (2000); Preece A W, et al., “Effect of a 915-MHz simulated mobile phone signal on cognitive function in man,” International Journal of Radiation Biology 75: 447-456 (1999); and Walker M P, et al., “Quantifying fluctuation in Dementia with Lewy Bodies, Alzheimer's disease and vascular dementia,” Neurology 54: 1616-1625 (2000)) and has been used to evaluate a diverse range of pharmaceutical compounds.
This example describes the pharmacodynamic effects of clonazepam compositions formulated for intranasal administration using neurocognitive tests. A selection of tests from a computerized assessment system of Cognitive Drug Research (“CDR,” Reading, United Kingdom) is employed. The study is typically a double-blind, randomized, placebo-controlled cross-over design. As a control, the group may receive clonazepam intravenous (i.v.) and placebo at selected dosages.
Cognitive function is typically assessed using an attentional task battery to assess attention and a word recognition task to assess secondary memory. […]
Tests may be administered, for example, in the following order: Word Presentation; Simple Reaction Time; Digit Vigilance; Choice Reaction Time; and Word Recognition. […] Summary statistics (m, number; mean; sem, standard error; sd, standard deviation; median; min, minimum; max, maximum; and missing) are typically calculated for each measure at each time point by dose. […]

[4] = In vitro permeation across sheep nasal mucosa, Franz cells; conditions: saturated solution, Franz cell, 7 h, FIG. 1
Protocol: Freshly excised sheep nasal mucosa was used and prepared following a standard protocol. The excised sheep nasal mucosa was cleaned by rinsing with de-ionized water and either used fresh or placed flat over a filter paper and stored frozen until used.
(ii) Dosing and Sample Collection—Franz cell studies: Individually calibrated Franz cells with an average surface area and volume of approximately 0.6 cm^2 and 2 mL, respectively, were employed to determine the permeation characteristics of drug. The nasal sheep mucosa was mounted between the two halves of the Franz cell with the mucosal side facing the donor compartment. The receptor compartment was filled with receiver fluid, stirred constantly with a PTFE-coated magnetic follower driven by a submersible magnetic stirrer bed and maintained at 37° C. in a water bath. Approximately 1 mL (infinite dose) of saturated drug solution was placed into the donor compartment and covered with […] ® (Pechiney Plastic Packaging, Inc., Chicago, Ill.) throughout the study. Following the application of the drug solution, the receiver fluid (200 μL) was removed from the receptor compartment via the sampling arm after sampling times (t=1, 2, 3, 4, 5, 6 and 7 h) and analyzed via HPLC. Each sample removed was replaced by an equal volume of fresh pre-warmed (37° C.) receiver fluid. […]

[5] = Human pharmacokinetic, safety and tolerability study (oral, intravenous, intranasal cross-over)
Protocol: The human pharmacokinetics, safety, and tolerability of the clonazepam compositions of the present invention formulated for intranasal delivery for therapeutic applications are evaluated using standard clinical procedures. Clonazepam compositions formulated for intranasal delivery are provided, for example, for application by the participants to intranasal mucosa.
A primary objective of initial studies in humans is to determine and compare pharmacokinetic profiles of three dosage forms of clonazepam: oral, i.v., and intranasal, following single administration. An example of such a study in humans is a cross-over study performed in 12 healthy male volunteers. Plasma and urine level of clonazepam and 7-amino-clonazepam are determined, for example, using HPLC and UV detection. […] Further the initial studies in humans are used to determine local tolerability of intranasal formulation using questionnaire and the Visual Analog Scale (VAS). VAS is a validated instrument that has been used in numerous studies to quantify subjective opening of the nasal passages. In addition, cognitive, sleepiness and mood effects are evaluated using questionnaires and scales (see, e.g., Example 10 below). Further, attention and vigilance may be evaluated using, for example, LEEDS Psychomotor Multiple Choice Reaction Time (MCRT) testing.
A human pharmacokinetic study was carried out as described in Example 8.
15 young, healthy male volunteers received a single dose of 1 mg clonazepam by oral, intravenous and intranasal routes in a three-period cross-over design.

[6] = Solubility of clonazepam in neat solvents; conditions: neat PEG 300
Protocol: The solubility of clonazepam in a number of neat solvents was determined using standard methods.

SMILES: O=C1CN=C(c2ccccc2Cl)c2cc([N+](=O)[O-])ccc2N1 [Clonazepam, 5-(2-chlorophenyl)-1,3-dihydro-7-nitro-2H-1,4-benzodiazepin-2-one]
- time of maximum blood concentrations [1]: one to two
- solubility in the 50:50 mixture [2]: about 36.4 mg/mL
- time at which effects were first apparent (Leeds Psychomotor Test, Bond and Lader VAS, Karolinska Sleepiness Scale) ([3]; intranasal administration): approximately 30 minutes
- time at which effects were first apparent (Leeds Psychomotor Test, Bond and Lader VAS, Karolinska Sleepiness Scale) ([3]; intravenous administration): approximately 30 minutes
- time at which effects were first apparent (Leeds Psychomotor Test, Bond and Lader VAS, Karolinska Sleepiness Scale) ([3]; oral administration): approximately 2 hours
- permeation across sheep nasal mucosa [4]: at steady state
- Cmax of the intranasal route as % of that of the intravenous route ([5]; 1 mg): 17%
- Cmax of the intranasal route as % of that of the oral route ([5]; 1 mg): 93%
- median Tmax ([5]; 1 mg single dose, intravenous, 15 volunteers): 6 min
- mean Cmax (mean ±SD) ([5]; 1 mg, intranasal route): 7.12 ± 3.81 ng/mL
- mean Cmax (mean ±SD) ([5]; 1 mg, intravenous route): 42.5±10.8
- mean Cmax (mean ±SD) ([5]; 1 mg, oral route): 7.64 ± 1.74 ng/mL
- subjects reporting somnolence ([5]; after intranasal dosing, 10 of 15): approximately 67%
- subjects reporting nasal discomfort ([5]; after intranasal dosing, 12 of 15): approximately 80%
- subjects reporting sedation ([5]; after intravenous dosing): 3/15
- subjects reporting somnolence ([5]; after intravenous dosing): 11/15
- subjects reporting somnolence or sedation ([5]; after intravenous dosing): Approximately 93%
- subjects reporting somnolence ([5]; after oral dosing, 13 of 15): approximately 87%
- Solubility [6]: 37.0 mg/mL (≈ 117 mM)
